Data reported in patent publication US20240360194A1, “New Peptides as Potent and Selective GIP Receptor Agonists” (Sanofi, priority 2021, published 2024).
Numbered stars: 1 amine (or outer) side, 2 acyl side, 3 side chain; on linkers, the order of the positions; unused ones are H or OH. Square brackets hold non-standard residues; d marks the D form. Side chains are listed from the residue outwards. Peptide text beside a SMILES is read from it. * marks the point of attachment. C18 diacid = O=C(O)CCCCCCCCCCCCCCCCC(=O)*; γGlu = O=C(O)[C@H](CCC(=O)[*:2])N[*:1]; AEEA = NCCOCCOCC(=O)O; Aib = CC(C)(N)C(=O)O

How the values were obtained:
[1] = system: C57Bl/6 mice; test: Acute effects after s.c. treatment on blood glucose in an intraperitoneal glucose tolerance test (ipGTT); assay type: in vivo, male C57Bl/6NCrl mice; conditions: for Blood glucose concentration AUC / Incremental blood glucose concentration AUCi: mean ± SEM; for Incremental blood glucose concentration AUCi: baseline corrected; for minimal effective dose for improvement of i.p. glucose tolerance: single s.c. dose, C57Bl/6NCrl mice, vs. vehicle
Text: Acute Effects after Subcutaneous (s.c.) Treatment on Blood Glucose in an Intraperitoneal (i.p.) Glucose Tolerance Test (ipGTT) in Healthy, Male C57Bl/6 Mice
Healthy, normoglycemic male C57Bl/6NCrl mice were ordered in an age of 9-10 weeks with an approximate body weight (BW) of 24-26 g at Charles River Laboratories Deutschland GmbH, 97633 Sulzfeld, Germany. Mice were shipped grouped housed (N=4 per cage), acclimatized for one week and remained grouped housed throughout the entire study. Mice were housed under vivarium conditions that included a 12 h light/dark cycle (light phase 06:00 AM-06:00 PM), mean room temperature of 22±2° C. and a relative mean humidity of 55±10%. All animals had free access to food (Ssniff R/M-H diet) and water prior to study start. At study start mice were between 10-11 weeks old.
The primary objective of the study was to investigate the compound-induced lowering of the blood glucose excursion and improvement of glucose tolerance in a mouse ipGTT setting and therefore the primary parameters included blood glucose, delta blood glucose (normalized to the time point just prior to the i.p. glucose challenge, t=0 h) and their respective calculated area under curve (AUC) values. The study was performed as an acute, single dosing study with 6 groups and the male animals were randomly divided to groups of 7-8 mice per group. Dose-dependent pharmacodynamic blood glucose lowering efficacy of the GIPR agonist was analyzed with s.c. injections 6 h before the i.p. glucose load in the dose range from 3 up to 100 nmol/kg and compared to the vehicle group as well as the semaglutide positive control at a dose of 10 nmol/kg.
In more detail, mice were fed overnight and on the following morning brought to the lab with food removed but ad libitum access to water. Blood samplings (5 μl) were performed at: −6.5, −0.5, 0, 0.17, 0.5, 1, 1.5, 2 and 3 h before and after the glucose bolus of 1 g glucose per kg BW i.p. given at time point t=0 h. On time point t=0.17 h an additional K-EDTA plasma sample from 60-80 μl blood was taken for plasma insulin analysis. Blood was withdrawn from the tip of the tail. The GIPR agonist and semaglutide were dissolved in 10 mM phosphate buffer pH 7.4 with 2.3% glycerol and 0.01% polysorbat 20 (vehicle) and s.c. treatment was performed −6 h before the glucose load (t=0 h) using an injection volume of 5 ml/kg. The injection solutions were freshly prepared prior to the experiment using sterile filtered vehicle solution. Blood glucose was determined enzymatically (Gluco-quant® Glucose/HK kit on Roche/Hitachi 912). Plasma insulin was determined using a mouse/rat insulin sandwich immunoassay kit from Meso Scale Discovery.
All data were collected using Microsoft Excel. None of the data were collected online. The results are expressed as means±standard error of the mean (SEM). As primary study parameters, blood glucose, baseline (time point t=0 h) subtracted delta blood glucose and their respective calculated area under curve (AUC) values were determined.
The statistical analysis of the ipGTT blood glucose excursion data response following subcutaneous compound or vehicle treatment was performed on the calculated AUC values of blood glucose raw data as well as the calculated AUC values for baseline subtracted delta blood glucose data. In a first step the Levene's test was used to test for equality of variances between groups. […] Where Levene's test was not significant (p>0.05) ANOVA was conducted without prior rank transformation. In a second step a One-way ANOVA analysis for factor treatment followed by Dunnett's multiple comparisons test vs. vehicle group was used to test for statistical differences. All analyses were performed using SAS (version 9.4) under Linux via the interface software EverSt@t V6.1.
Male C57Bl/6NCrl mice were fed overnight and on the following morning brought to the lab with food removed but adlibitum access to water. […]

[2] = target: T1, human GIP receptor (hGIPR) (Homo sapiens, UniProt P48546); test: In vitro cellular cAMP assay for GIP receptor efficacy (HEK-293 cell line over-expressing receptor); assay type: cell-based; conditions: EC50 hGIPR 0.1% BSA, HEK-293, 0.1% BSA
T1 sequence (P48546 22-466): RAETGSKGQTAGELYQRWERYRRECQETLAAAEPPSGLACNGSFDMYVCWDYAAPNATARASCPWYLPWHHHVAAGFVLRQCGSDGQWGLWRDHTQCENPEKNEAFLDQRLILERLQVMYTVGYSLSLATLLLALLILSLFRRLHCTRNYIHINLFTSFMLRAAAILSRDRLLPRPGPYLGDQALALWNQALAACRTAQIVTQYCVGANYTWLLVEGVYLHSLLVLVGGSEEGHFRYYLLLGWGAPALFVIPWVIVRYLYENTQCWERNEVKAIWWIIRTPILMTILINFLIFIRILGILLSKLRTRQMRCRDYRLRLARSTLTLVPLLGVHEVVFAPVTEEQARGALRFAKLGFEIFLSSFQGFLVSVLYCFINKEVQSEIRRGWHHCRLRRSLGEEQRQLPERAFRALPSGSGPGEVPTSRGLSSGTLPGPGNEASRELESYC

SMILES	Blood glucose concentration AUC ([1]; Example 14 study, 3 nmol/kg s.c. 6 h before i.p. glucose, vehicle 24.44)	Incremental blood glucose concentration AUCi ([1]; Example 14 study, 3 nmol/kg s.c., vehicle 5.22)	Blood glucose concentration AUC ([1]; Example 14 study, 10 nmol/kg s.c. 6 h before i.p. glucose, vehicle 24.44)	Incremental blood glucose concentration AUCi ([1]; Example 14 study, 10 nmol/kg s.c., vehicle 5.22)	Blood glucose concentration AUC ([1]; Example 14 study, 30 nmol/kg s.c. 6 h before i.p. glucose, vehicle 24.44)	Incremental blood glucose concentration AUCi ([1]; Example 14 study, 30 nmol/kg s.c., vehicle 5.22)	Blood glucose concentration AUC ([1]; Example 14 study, 100 nmol/kg s.c. 6 h before i.p. glucose, vehicle 24.44)	Incremental blood glucose concentration AUCi ([1]; Example 14 study, 100 nmol/kg s.c., vehicle 5.22)	minimal effective dose for improvement of i.p. glucose tolerance [1] [nmol/kg]	EC50 [2] [pM]	Blood glucose concentration AUC ([1]; Example 13 study, 3 nmol/kg s.c. 6 h before i.p. glucose, vehicle 23.20)	Incremental blood glucose concentration AUCi ([1]; Example 13 study, 3 nmol/kg s.c., vehicle 5.50)	Blood glucose concentration AUC ([1]; Example 13 study, 10 nmol/kg s.c. 6 h before i.p. glucose, vehicle 23.20)	Incremental blood glucose concentration AUCi ([1]; Example 13 study, 10 nmol/kg s.c., vehicle 5.50)	Blood glucose concentration AUC ([1]; Example 13 study, 30 nmol/kg s.c. 6 h before i.p. glucose, vehicle 23.20)	Incremental blood glucose concentration AUCi ([1]; Example 13 study, 30 nmol/kg s.c., vehicle 5.50)	Blood glucose concentration AUC ([1]; Example 13 study, 100 nmol/kg s.c. 6 h before i.p. glucose, vehicle 23.20)	Incremental blood glucose concentration AUCi ([1]; Example 13 study, 100 nmol/kg s.c., vehicle 5.50)
CC[C@H](C)[C@H](NC(=O)[C@H](Cc1ccccc1)NC(=O)[C@H](CCC(=O)O)NC(=O)[C@H](CCC(=O)O)NC(=O)[C@H](CCC(N)=O)NC(=O)[C@H](Cc1c[nH]cn1)NC(=O)[C@@H](NC(=O)[C@H](CCCNC(=N)N)NC(=O)[C@H](CC(=O)O)NC(=O)[C@H](CCCCNC(=O)COCCOCCNC(=O)COCCOCCNC(=O)CC[C@H](NC(=O)CCCCCCCCCCCCCCCCC(=O)O)C(=O)O)NC(=O)C(C)(C)NC(=O)[C@@H](NC(=O)[C@H](CO)NC(=O)[C@H](CC(C)C)NC(=O)[C@H](CC(=O)O)NC(=O)[C@H](CO)NC(=O)[C@@H](NC(=O)[C@H](Cc1ccccc1)NC(=O)[C@@H](NC(=O)CNC(=O)[C@H](CCC(=O)O)NC(=O)C(C)(C)NC(=O)[C@@H](N)Cc1ccc(O)cc1)[C@@H](C)O)[C@@H](C)CC)[C@@H](C)CC)[C@@H](C)CC)C(=O)N[C@@H](CCC(N)=O)C(=O)N[C@@H](Cc1c[nH]c2ccccc12)C(=O)N[C@@H](CC(C)C)C(=O)N[C@@H](CC(C)C)C(=O)N[C@@H](C)C(=O)N[C@@H](CCC(N)=O)C(=O)NCC(=O)N1CCC[C@H]1C(=O)N[C@@H](CO)C(=O)N[C@@H](CO)C(=O)NCC(=O)N[C@@H](C)C(=O)N1CCC[C@H]1C(=O)N1CCC[C@H]1C(=O)N1CCC[C@H]1C(=O)N[C@@H](CO)C(N)=O [SEQ ID NO: 35, H2N-Y-Aib-E-G-T-F-I-S-D-L-S-I-Aib-K[{AEEA}2-gGlu-C18OH]-DRIHQEEFIQWLLAQGPSSGAPPPS-NH2] (H-Y[Aib]EGTFISDLSI[Aib]K([AEEA-AEEA-γGlu-C18 diacid])DRIHQEEFIQWLLAQGPSSGAPPPS-NH2)	+24.41 ± 0.743 mmol/L* 0-2 h	+5.57 ± 0.454 mmol/L* 0-2 h	+20.67 ± 0.516 mmol/L* 0-2 h	+5.05 ± 0.432 mmol/L* 0-2 h	+18.45 ± 0.308 mmol/L* 0-2 h	+3.03 ± 0.225 mmol/L* 0-2 h	+15.17 ± 0.452 mmol/L* 0-2 h	+1.76 ± 0.222 mmol/L* 0-2 h	10 to 30									
CC[C@H](C)[C@H](NC(=O)[C@H](CCCNC(=N)N)NC(=O)[C@H](CC(=O)O)NC(=O)[C@H](CCCCNC(=O)COCCOCCNC(=O)COCCOCCNC(=O)CC[C@H](NC(=O)CCCCCCCCCCCCCCCCC(=O)O)C(=O)O)NC(=O)C(C)(C)NC(=O)[C@@H](NC(=O)[C@H](CO)NC(=O)[C@H](CC(C)C)NC(=O)[C@H](CC(=O)O)NC(=O)[C@H](CO)NC(=O)[C@@H](NC(=O)[C@H](Cc1ccccc1)NC(=O)[C@@H](NC(=O)CNC(=O)[C@H](CCC(=O)O)NC(=O)C(C)(C)NC(=O)[C@@H](N)Cc1ccc(O)cc1)[C@@H](C)O)[C@@H](C)CC)[C@@H](C)CC)C(=O)N[C@@H](Cc1c[nH]cn1)C(=O)N[C@@H](CCC(N)=O)C(=O)NC(C)(C)C(=O)N[C@@H](CCC(=O)O)C(=O)N[C@@H](Cc1ccccc1)C(=O)N[C@H](C(=O)N[C@@H](CCC(=O)O)C(=O)N[C@@H](Cc1c[nH]c2ccccc12)C(=O)N[C@@H](CC(C)C)C(=O)N[C@@H](CC(C)C)C(=O)N[C@@H](C)C(=O)N[C@@H](CCC(N)=O)C(=O)N[C@@H](CCCNC(=N)N)C(=O)NCC(N)=O)[C@@H](C)CC [SEQ ID NO: 6, H2N-Y-Aib-E-G-T-F-I-S-D-L-S-I-Aib-K[{AEEA}2-gGlu-C18OH]-D-R-I-H-Q-Aib-E-F-I-E-W-L-L-A-Q-R-G-NH2]									10 to 30	5.93	+21.51 ± 0.580 mmol/L* 0-2 h	+3.85 ± 0.438 mmol/L* 0-2 h	+19.37 ± 0.309 mmol/L* 0-2 h	+3.84 ± 0.240 mmol/L* 0-2 h	+17.22 ± 0.453 mmol/L* 0-2 h	+2.87 ± 0.382 mmol/L* 0-2 h	+15.35 ± 0.308 mmol/L* 0-2 h	+1.21 ± 0.361 mmol/L* 0-2 h
